# Source: patent US20190144368A1, “Compounds and compositions for biofilm prevention” (INHIBIO AS, priority 2016, published 2019)
# “And” between values parts separate entries of the source, which are not always exact repeats. Equal values may be shown once.
# Assays:
# [1] = tested on: Gram positive bacteria (three Staphylococcus aureus strains); assay: Biofilm formation in polystyrene microtiter plates (crystal violet, OD595), Gram positive bacteria; assay type: cell-based; details: one day at 37 °C
# Procedure: (§1) All experiments were performed by using sterile 96-wells polystyrene microtiter plates (Nunc, Nuncleon, Roskilde, Denmark) under conditions promoting biofilm formation by the different bacterial genera. The Inhibio compound preparations of the invention; 1,3-cyclohexanedione, 1,4-cyclohexanedione, cyclopentanone, 5-ethylcyclohexane-1,3-dione and 5-methyl-1,3 cyclohexanedione 98% were solved directly in Tryptic Soy Broth (TSB) 1+1 or Liquid Microbiology Broth (LB) broth without NaCl (LB^wo/NaCl) to obtain the test concentrations, i.e. from 1 mg/ml to 10 mg/ml.
# Three Staphylococcus aureus strains of animal origin were used in this study. All strains were stored at −80° C. in Brain Heart Infusion Broth (BHI) (Difco, BD, Franklin Lakes, N.J., USA) supplemented with 15% glycerine (Merck KGaA, Darmstadt, Germany) and were recovered on blood agar at 37.0±1.0° C. The bacterial cultures were then transferred into TSB and were incubated statically overnight at 37.0±1.0° C. to obtain an overnight working culture. A total of 2 μl of this suspension was transferred to each 96 wells of polystyrene microtiter plates (Nunc, Nuncleon, Roskilde, Denmark) containing 198 μl TSB 1+1 with dissolved Inhibio compounds in the following concentrations: 0 mg/ml, 1 mg/ml and 10 mg/ml for 1,3-cyclohexanedione; 0 mg/ml and 10 mg/ml for 1,4-cyclohexanedione; and 0 mg/ml, 1 mg/ml, 2 mg/ml and 10 mg/ml for 5-ethylcyclohexane-1,3-dione and 5-Methyl-1,3-cyclohexanedione in the total amount of broth. Three parallels of each strain were used and the microtiter plates were incubated statically for one day, at 37±1.0° C. After incubation, OD595 was measured in a microplate photometer (Multiscan EX; Thermo Fisher Scientific Inc, Waltham, Mass., USA) before the plates were gently washed three times with 290 μl tap water. The plates were dried in room temperature before addition of 220 μl 1% crystal violet (Sigma-Aldrich, St. Louis, Mo., USA). After 30 minutes incubation in room temperature, the plates were washed three times with tap water before the addition of 220 μl ethanol:acetone (70:30 w:w) to dissolve the bound dye. The plates were incubated for 10 minutes in room temperature before OD595 was measured after the bound dye was dissolved using ethanol:acetone. For each strain, the result was calculated by subtracting the median OD595 of the three parallels of the control (test broth only) from the median OD595 of the three parallels of sample. Further, the average result of all three Gram positive strains included in the study were calculated. Three independent experiments were performed and the average was evaluated.
# [2] = tested on: SRB isolate ATCC 29579 Desulfovibrio vulgaris subspecies vulgaris; assay: Biofilm produced by SRB (sulphate reducing bacteria) on carbon steel coupon in fluids; assay type: cell-based; details: 10 mg/ml, 20 °C for 12 days
# Procedure: One SRB isolate (the culture collection strain: ATCC 29579 Desulfovibrio vulgaris subspecies vulgaris) was tested. 1,4-cyclohexanedione and cyclopentanone were diluted in the culture medium ATCC 1249 to a concentration of 10 mg/ml (1%) and added to each their 50 ml Falcon centrifugal tube. A third tube, with 10 ml of medium only (ATCC 1249) was included as a control. 50 μl SRB starting culture was added to each of the three tubes together with a carbon steel coupon. Biofilm was formed on the coupon by incubating at 20° C. for 12 days. After incubation, the coupons were washed in 40 ml sterile saline to remove loosely adhered cells. A sample from this fluid was injected into SRB medium and blackening of the medium was visualized, showing that there were still free-floating bacteria present.
# [3] = tested on: Gram negative bacteria (Salmonella isolates); assay: Biofilm formation in polystyrene microtiter plates (crystal violet, OD595), Gram negative bacteria; assay type: cell-based, Salmonella ser. Typhimurium, Salmonella ser. Agona; details: 10 mg/ml, two days at 20 °C
# Procedure: as §1
# (§2) One Salmonella ser. Typhimurium (S. Typhimurium), two Salmonella ser. Agona (S. Agona) and two Escherichia coli (E. coli) isolates were used in these studies. The studies performed using 1,3-cyclohexanedione and 1,4-cyclohexanedione were done on Salmonella isolates only. The studies comparing Menthone to 1,3-cyclohexanedione were using two E. coli strains, E. coli 1242 and E. coli 1153, see FIG. 11. The Salmonella isolates were isolated from Norwegian feed factories except one S. Typhimurium strain which was a culture collection strain (ATCC 14028). The E. coli isolates were of animal origin. All strains were stored at −80° C. in BHI supplemented with 15% glycerine and were recovered on blood agar at 37.0±1.0° C. The bacterial cultures were then transferred into LB broth and incubated statically overnight at 37.0±1.0° C. to obtain an overnight working culture. A total of 30 μl of this suspension was transferred to each well in 96 wells polystyrene microtiter plates (Nunc, Nuncleon, Roskilde, Denmark) in triplets. The wells were containing 100 μl LB^wo/NaCl (bacto-tryptone 10 g/l, yeast extract 5 g/l) with 1,3-cyclohexanedione dissolved in concentration 0 mg/ml, 1 mg/ml and 10 mg/ml in the total amount of broth and 1,4-cyclohexanedione and cyclopentanone at 0 mg/ml and 10 mg/ml. The microtiter plates were incubated statically for two days, at 20±1.0° C. After incubation, OD595 was measured before the plates were gently washed one time with 150 μl tap water. The plates were dried in room temperature before addition of 140 μl 1% crystal violet (Sigma-Aldrich). After 30 minutes incubation in room temperature, the plates were washed three times with tap water before addition of 140 μl ethanol:acetone (70:30 w:w) and incubated for another 10 minutes in room temperature. OD595 was measured in a microplate photometer (Multiscan EX) after the bound dye was dissolved using ethanol:acetone. For each strain, the result was calculated by subtracting the median OD595 of the three parallels of the control (test broth only) from the median OD595 of the three parallels of sample. Further, the averages of the Gram negative strains were calculated. Three independent experiments were performed and the average was evaluated.
# [4] = tested on: E. coli 1242 and E. coli 1153; assay: Biofilm formation in microtiter plates, comparison of 1,3-cyclohexanedione and menthone; assay type: cell-based, Escherichia coli; details: 1 mg/ml, two values, one per strain (E. coli 1242, E. coli 1153)
# Procedure: as §1
# as §2, with “A total of 30 μl of this suspension was transferred to each well in 96 wells polystyrene microtiter plates (Nunc, Nuncleon, Roskilde, Denmark) in triplets. The wells were containing 100 μl LB^wo/NaCl (bacto-tryptone 10 g/l, yeast extract 5 g/l) with 1,3-cyclohexanedione dissolved in concentration 0 mg/ml, 1 mg/ml and 10 mg/ml in the total amount of broth and 1,4-cyclohexanedione and cyclopentanone at 0 mg/ml and 10 mg/ml. The microtiter plates were incubated statically for two days, at 20±1.0° C.” left out, “The plates were dried in room temperature before addition of 140 μl 1% crystal violet (Sigma-Aldrich). After 30 minutes incubation in room temperature, the plates were washed three times with tap water before addition of 140 μl ethanol:acetone (70:30 w:w) and incubated for another 10 minutes in room temperature.” left out
Compound,"decrease in biofilm formation, percentage of the control ([1]; 10 mg/ml)",biofilm visualized on carbon steel coupon [2],"decrease in biofilm formation, percentage of the control [3]","decrease in biofilm formation, percentage of the control ([1]; 1 mg/ml)","decrease in biofilm formation, percentage of the control ([1]; 2 mg/ml)",decrease in biofilm formation [4]
"O=C1CCC(=O)CC1 [1,4-cyclohexanedione]",53%,only scarce amount of biofilm could be visualized,91%,–,–,–
"CCC1CC(=O)CC(=O)C1 [5-ethylcyclohexane-1,3-dione]",98%,–,–,55%,74%,–
"CC1CC(=O)CC(=O)C1 [5-methyl-1,3-cyclohexanedione]",98%,–,–,32%,85%,–
"O=C1CCCC1 [cyclopentanone, Cyclopentanone]",–,only scarce amount of biofilm could be visualized,77%,–,–,–
"CC1CCC(C(C)C)C(=O)C1 (stereo not drawn) [menthone, 2-isopropyl-5-methylcyclohexane-1-on, reference compound]",–,–,–,–,–,27% and 48%
